Here are results for 24 molecules from ChEMBL document CHEMBL3769336, “Discovery of a Chemical Tool Inhibitor Targeting the Bromodomains of TRIM24 and BRPF” (J Med Chem, 2016).

pIC50: −log10 of the molar value.

Assay [1] concerns the target T1, Bromodomain-containing protein 1 (Homo sapiens, UniProt O95696).
T1 sequence (O95696 whole entry): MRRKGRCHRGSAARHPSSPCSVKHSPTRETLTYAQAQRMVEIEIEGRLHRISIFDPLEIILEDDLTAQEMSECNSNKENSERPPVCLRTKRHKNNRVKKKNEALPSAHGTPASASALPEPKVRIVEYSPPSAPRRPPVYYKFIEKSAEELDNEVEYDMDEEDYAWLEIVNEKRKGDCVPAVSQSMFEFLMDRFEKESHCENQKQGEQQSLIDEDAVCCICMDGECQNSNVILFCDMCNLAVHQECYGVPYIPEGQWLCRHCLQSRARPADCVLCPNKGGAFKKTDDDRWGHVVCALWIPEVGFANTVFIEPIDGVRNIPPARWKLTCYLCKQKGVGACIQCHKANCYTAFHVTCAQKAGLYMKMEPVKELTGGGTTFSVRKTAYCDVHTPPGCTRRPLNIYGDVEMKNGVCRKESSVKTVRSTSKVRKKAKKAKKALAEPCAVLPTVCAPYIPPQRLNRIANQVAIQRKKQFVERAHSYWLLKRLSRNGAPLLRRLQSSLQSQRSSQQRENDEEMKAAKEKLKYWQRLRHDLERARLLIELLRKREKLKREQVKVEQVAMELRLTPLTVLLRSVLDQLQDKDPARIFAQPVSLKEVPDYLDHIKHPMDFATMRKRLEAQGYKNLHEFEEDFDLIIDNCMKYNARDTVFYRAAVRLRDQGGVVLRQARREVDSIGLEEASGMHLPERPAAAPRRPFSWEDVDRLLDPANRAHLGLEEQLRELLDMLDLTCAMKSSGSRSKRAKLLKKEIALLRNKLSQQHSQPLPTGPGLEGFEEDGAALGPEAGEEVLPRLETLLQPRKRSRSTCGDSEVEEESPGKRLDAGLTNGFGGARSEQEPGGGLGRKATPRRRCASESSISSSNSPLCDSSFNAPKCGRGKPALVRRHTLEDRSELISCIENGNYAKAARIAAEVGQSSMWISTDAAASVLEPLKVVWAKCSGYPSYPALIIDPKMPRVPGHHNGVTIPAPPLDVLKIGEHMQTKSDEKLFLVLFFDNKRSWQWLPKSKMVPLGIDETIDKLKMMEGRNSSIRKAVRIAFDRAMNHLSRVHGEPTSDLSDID
Kind of assay: Inhibition of BRPF2 BRD1 (unknown origin) by Alpha Screen assay. A general note: Bead proximity is the source of the signal in Alpha formats.

The target in assay [2] is T2, Transcription intermediary factor 1-alpha (Homo sapiens, UniProt O15164).
T2 sequence (O15164 whole entry): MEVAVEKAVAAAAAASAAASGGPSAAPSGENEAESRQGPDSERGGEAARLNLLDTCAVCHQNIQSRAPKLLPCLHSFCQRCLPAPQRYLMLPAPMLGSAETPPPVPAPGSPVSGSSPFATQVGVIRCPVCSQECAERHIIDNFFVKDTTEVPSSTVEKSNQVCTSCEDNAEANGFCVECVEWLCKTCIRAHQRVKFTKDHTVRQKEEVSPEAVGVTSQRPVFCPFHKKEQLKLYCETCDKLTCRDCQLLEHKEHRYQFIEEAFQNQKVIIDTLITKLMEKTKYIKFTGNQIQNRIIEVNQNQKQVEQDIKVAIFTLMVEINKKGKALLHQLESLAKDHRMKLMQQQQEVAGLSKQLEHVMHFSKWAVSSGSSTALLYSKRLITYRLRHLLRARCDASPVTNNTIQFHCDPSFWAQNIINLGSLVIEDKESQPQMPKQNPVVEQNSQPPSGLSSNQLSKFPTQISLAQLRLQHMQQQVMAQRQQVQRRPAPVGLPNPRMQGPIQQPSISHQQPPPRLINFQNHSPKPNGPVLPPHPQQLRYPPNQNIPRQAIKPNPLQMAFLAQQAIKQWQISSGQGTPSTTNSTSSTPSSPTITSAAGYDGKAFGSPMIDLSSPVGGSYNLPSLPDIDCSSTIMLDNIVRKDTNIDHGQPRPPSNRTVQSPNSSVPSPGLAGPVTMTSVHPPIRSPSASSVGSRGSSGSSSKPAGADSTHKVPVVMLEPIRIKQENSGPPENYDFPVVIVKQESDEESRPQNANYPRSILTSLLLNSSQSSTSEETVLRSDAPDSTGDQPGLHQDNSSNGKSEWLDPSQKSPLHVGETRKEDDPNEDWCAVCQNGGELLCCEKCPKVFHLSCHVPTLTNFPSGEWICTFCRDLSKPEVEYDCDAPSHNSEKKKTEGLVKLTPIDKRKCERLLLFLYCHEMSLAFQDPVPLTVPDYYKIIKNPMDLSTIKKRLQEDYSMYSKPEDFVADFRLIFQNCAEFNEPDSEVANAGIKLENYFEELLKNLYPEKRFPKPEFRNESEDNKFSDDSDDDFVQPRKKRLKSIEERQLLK
Put plainly: Inhibition of N-terminal His6-SUMO-1-tagged recombinant human TRIM24 bromodomain expressed in Escherichia coli BL21(DE3)-R3-pRARE2 cells by Alpha Screen assay.

The target in a further assay is T3, Peregrin (Homo sapiens, UniProt P55201).
T3 sequence (P55201 whole entry): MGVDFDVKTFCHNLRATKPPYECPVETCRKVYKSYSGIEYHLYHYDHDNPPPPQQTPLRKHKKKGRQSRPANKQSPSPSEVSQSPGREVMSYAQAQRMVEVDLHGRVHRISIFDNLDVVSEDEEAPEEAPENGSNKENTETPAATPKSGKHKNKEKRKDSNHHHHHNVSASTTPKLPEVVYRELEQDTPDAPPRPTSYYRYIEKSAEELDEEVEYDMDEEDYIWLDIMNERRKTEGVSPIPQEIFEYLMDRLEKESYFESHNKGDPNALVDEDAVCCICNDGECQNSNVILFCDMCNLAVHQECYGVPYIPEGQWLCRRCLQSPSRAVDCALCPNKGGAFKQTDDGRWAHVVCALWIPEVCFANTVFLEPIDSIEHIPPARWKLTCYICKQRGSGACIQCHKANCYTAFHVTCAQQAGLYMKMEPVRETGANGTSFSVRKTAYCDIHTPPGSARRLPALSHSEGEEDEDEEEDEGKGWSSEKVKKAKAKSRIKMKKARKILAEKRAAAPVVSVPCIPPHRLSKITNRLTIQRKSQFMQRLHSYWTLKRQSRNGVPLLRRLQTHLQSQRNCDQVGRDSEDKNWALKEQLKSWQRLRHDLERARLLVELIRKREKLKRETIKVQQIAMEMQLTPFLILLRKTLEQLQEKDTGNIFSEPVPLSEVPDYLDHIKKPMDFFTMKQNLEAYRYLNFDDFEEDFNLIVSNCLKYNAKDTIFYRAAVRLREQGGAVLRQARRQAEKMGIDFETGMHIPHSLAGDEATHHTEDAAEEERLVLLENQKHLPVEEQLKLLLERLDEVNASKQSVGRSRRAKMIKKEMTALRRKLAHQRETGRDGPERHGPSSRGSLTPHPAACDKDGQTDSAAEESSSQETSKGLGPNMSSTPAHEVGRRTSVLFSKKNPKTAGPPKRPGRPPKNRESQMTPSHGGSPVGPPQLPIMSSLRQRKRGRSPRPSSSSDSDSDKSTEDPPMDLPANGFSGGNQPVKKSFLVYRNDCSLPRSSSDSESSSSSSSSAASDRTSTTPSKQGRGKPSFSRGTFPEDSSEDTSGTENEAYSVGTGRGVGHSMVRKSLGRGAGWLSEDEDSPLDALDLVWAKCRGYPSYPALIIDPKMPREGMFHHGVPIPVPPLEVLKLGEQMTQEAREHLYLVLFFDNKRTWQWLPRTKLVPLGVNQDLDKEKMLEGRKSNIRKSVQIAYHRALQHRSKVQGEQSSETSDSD
Kind of assay: Inhibition of BRPF1B (unknown origin) by Alpha Screen assay.

As usually defined, the pIC50 is the IC50 on a negative log10 scale, so that one unit is a factor of ten.

Regarding `COc1ccc(Oc2cc3c(cc2NS(=O)(=O)c2ccccc2)n(C)c(=O)n3C)cc1`, the pIC50 in assay [1] was 5.56; in assay [2], 6.14; on Peregrin it was 6.18.

`COc1ccc(Oc2cc3c(cc2NS(=O)(=O)c2ccc(OC)cc2)n(C)c(=O)n3C)cc1`: the pIC50 in assay [1] is 5.45; in assay [2] it was 6.11; at Peregrin it was 6.18.

Regarding `COc1cccc(S(=O)(=O)Nc2cc3c(cc2Oc2ccccc2)n(C)c(=O)n3C)c1`, the pIC50 in assay [1] was 5.70; in assay [2] it was 5.62; on Peregrin, 6.37.

`Cc1cc(Cl)ccc1S(=O)(=O)Nc1cc2c(cc1Oc1ccccc1)n(C)c(=O)n2C`: the results for the pIC50 (in assay [1]; in assay [2]; on Peregrin) were 5.62, 5.61 and 5.93, respectively.

Turning to `CC(C)c1ccc(S(=O)(=O)Nc2ccc3c(c2)n(C)c(=O)n3C)cc1`, the results for the pIC50 (in assay [1]; in assay [2]; against Peregrin) were 5.37, 5.46 and 6.38, respectively.

With `COc1ccc(S(=O)(=O)Nc2cc3c(cc2Oc2ccccc2)n(C)c(=O)n3C)cc1OC`, the pIC50 in assay [1] was 5.92; in assay [2] it was 6.32; on Peregrin it was 6.54.

With `Cn1c(=O)n(C)c2cc(NS(=O)(=O)c3ccc4c(c3)CCCC4)ccc21`, the values for the pIC50 (in assay [1]; in assay [2]; at Peregrin) were 5.69, 5.21 and 6.48, respectively.

As for `COc1ccc(Oc2cc3c(cc2NS(=O)(=O)c2ccccc2C)n(C)c(=O)n3C)cc1`, the pIC50 is 5.62 in assay [1], 5.83 in assay [2] and 6.17 at Peregrin.

`Cc1ccc(S(=O)(=O)Nc2cc3c(cc2Oc2ccccc2)n(C)c(=O)n3C)cc1`: the pIC50 in assay [1] is 5.53; in assay [2], 5.90; at Peregrin, 6.29.

Regarding `Cn1c(=O)n(C)c2cc(Oc3ccccc3)c(NS(=O)(=O)c3ccc4c(c3)CCCC4)cc21`, the pIC50 is 5.57 in assay [1], less than 5.00 in assay [2] and 5.57 at Peregrin.

`COc1ccc(Oc2cc3c(cc2NS(=O)(=O)c2ccc(C)cc2)n(C)c(=O)n3C)cc1`: the pIC50 in assay [1] is less than 5.00; in assay [2], 5.57; on Peregrin it was 5.65.

Consider `Cc1ccc(F)cc1S(=O)(=O)Nc1cc2c(cc1Oc1ccccc1)n(C)c(=O)n2C`, for which the pIC50 is 5.62 in assay [1], 5.47 in assay [2] and 6.10 against Peregrin.

Consider `CCCOc1ccc(S(=O)(=O)Nc2cc3c(cc2Oc2ccc(OC)cc2)n(C)c(=O)n3C)cc1`, for which the pIC50 is less than 5.00 in assay [1], 5.08 in assay [2] and 5.17 at Peregrin.

For `Cn1c(=O)n(C)c2cc(NS(=O)(=O)c3ccc4c(c3)CCC(C)(C)O4)ccc21`, the pIC50 in assay [1] is 5.61; in assay [2], 5.43; at Peregrin, 6.51.

Take `Cc1ccc(S(=O)(=O)Nc2cc3c(cc2Oc2ccccc2)n(C)c(=O)n3C)cc1F`: the values for the pIC50 (in assay [1]; in assay [2]; against Peregrin) were 5.43, 5.57 and 5.98, respectively.

Consider `COc1cc2c(cc1NS(=O)(=O)c1ccc(Br)cc1C)n(C)c(=O)n2C`, for which the pIC50 in assay [1] is 5.92.

For the molecule `Cn1c(=O)n(C)c2cc(NS(=O)(=O)c3ccc4c(c3)CCC4)ccc21`, the pIC50 is 5.77 in assay [1], less than 5.00 in assay [2] and 6.54 against Peregrin.

`COc1ccc(S(=O)(=O)Nc2cc3c(cc2Oc2ccccc2)n(C)c(=O)n3C)cc1`: the results for the pIC50 (in assay [1]; in assay [2]; at Peregrin) were 5.88, 6.13 and 6.47, respectively.

As to `COC1(C)Oc2cc(S(=O)(=O)Nc3ccc4c(c3)n(C)c(=O)n4C)ccc2O[C@]1(C)OC` (stereo not given in full), the results for the pIC50 (in assay [1]; in assay [2]; against Peregrin) were less than 5.00, less than 5.00 and 5.85, respectively.

Regarding `Cn1c(=O)n(C)c2cc(Oc3ccccc3)c(NS(=O)(=O)c3ccc(Cl)cc3)cc21`, the pIC50 in assay [1] was 5.46; in assay [2], 5.81; against Peregrin, 6.57.

As to `Cc1ccc(S(=O)(=O)Nc2cc3c(cc2Oc2ccccc2)n(C)c(=O)n3C)cc1C`, the pIC50 in assay [1] is 5.29; in assay [2] it was 5.32; at Peregrin it was 5.51.

For `Cc1ccccc1S(=O)(=O)Nc1cc2c(cc1Oc1ccccc1)n(C)c(=O)n2C`, the pIC50 is 5.77 in assay [1], 5.58 in assay [2] and 6.37 at Peregrin.

Regarding `Cc1ccc(S(=O)(=O)Nc2ccc3c(c2)n(C)c(=O)n3C)cc1F`, the pIC50 in assay [1] was 5.21; in assay [2], less than 5.00; against Peregrin, 6.23.

Regarding `Cn1c(=O)n(C)c2cc(NS(=O)(=O)c3ccc4c(c3)CCCO4)ccc21`, the pIC50 in assay [1] is 5.80; in assay [2] it was 5.33; on Peregrin it was 6.57.
